# Experimental data published in patent publication US10435399B2, “HDAC6 inhibitory heterocyclic compound” (TAKEDA PHARMACEUTICAL COMPANY LIMITED, priority 2017, dated 2019).
# Molecular target: T1, HDAC6 enzyme (Homo sapiens, UniProt Q9UBN7)
# T1 construct: transducing full length HDAC6 gene into Sf-9 insect cells; GST; purchased SignalChem; host or cells: Sf-9 insect cells
# T1 sequence (Q9UBN7 1-1215): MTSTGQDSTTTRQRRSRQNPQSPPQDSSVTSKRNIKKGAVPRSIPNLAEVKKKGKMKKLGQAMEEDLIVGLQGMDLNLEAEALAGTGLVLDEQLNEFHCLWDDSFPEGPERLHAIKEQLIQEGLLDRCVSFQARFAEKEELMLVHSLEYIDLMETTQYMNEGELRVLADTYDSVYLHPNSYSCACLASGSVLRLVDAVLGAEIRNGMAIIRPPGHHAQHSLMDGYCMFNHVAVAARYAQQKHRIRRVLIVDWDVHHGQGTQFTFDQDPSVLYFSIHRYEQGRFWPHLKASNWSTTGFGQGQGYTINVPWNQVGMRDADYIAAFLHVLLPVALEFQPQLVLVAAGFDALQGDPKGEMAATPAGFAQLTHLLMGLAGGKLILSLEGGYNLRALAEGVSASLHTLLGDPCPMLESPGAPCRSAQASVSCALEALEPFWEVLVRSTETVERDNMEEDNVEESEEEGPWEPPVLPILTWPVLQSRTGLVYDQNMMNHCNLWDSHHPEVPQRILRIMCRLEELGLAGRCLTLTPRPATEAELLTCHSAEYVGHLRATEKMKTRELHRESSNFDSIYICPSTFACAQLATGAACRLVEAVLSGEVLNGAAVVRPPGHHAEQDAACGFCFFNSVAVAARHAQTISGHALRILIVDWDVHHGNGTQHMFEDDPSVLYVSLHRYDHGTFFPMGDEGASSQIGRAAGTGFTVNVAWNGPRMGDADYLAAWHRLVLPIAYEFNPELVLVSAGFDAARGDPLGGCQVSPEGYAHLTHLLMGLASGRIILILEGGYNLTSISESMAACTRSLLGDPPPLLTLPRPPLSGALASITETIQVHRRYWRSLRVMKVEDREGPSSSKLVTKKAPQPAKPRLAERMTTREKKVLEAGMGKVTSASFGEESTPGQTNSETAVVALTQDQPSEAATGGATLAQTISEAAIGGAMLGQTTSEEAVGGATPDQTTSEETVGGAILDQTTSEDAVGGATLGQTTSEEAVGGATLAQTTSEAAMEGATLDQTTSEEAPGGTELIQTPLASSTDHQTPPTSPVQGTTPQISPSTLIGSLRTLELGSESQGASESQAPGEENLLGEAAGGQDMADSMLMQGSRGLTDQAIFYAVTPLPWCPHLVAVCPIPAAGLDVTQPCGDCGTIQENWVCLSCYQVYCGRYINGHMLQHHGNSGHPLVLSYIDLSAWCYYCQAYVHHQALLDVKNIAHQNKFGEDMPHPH
# Test: HDAC6 enzyme inhibitory activity (HDAC-Glo I/II Assay kit)
# Assay type: biochemical
# Details: 10 μM; wells without enzyme = 100% inhibition
# Outline: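 Luminescent HDAC-Glo I/II readout after 20 min room-temperature reaction with substrate-developer, following 60 min compound–enzyme preincubation. Enzyme: full-length HDAC6 from Sf-9 cells, GST-purified; buffer 24 mM Tris-HCl pH 7.5, 0.01% Tween-20, glutathione, salts. Wells lacking enzyme define 100% inhibition.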
row,HDAC6 inhibitory rate (%) (10 μM),Compound
1,100,"O=C1c2cc(-c3nnc(C(F)F)o3)ccc2CN1[C@@H]1CCN(C(=O)C2(C(F)(F)F)CC2)C[C@H]1c1ccc(F)cc1 [Example 508, 6-(5-(difluoro-methyl)-1,3,4-oxadiazol-2-yl)-2-((3R,4R)-3-(4-fluorophenyl)-1-((1-(trifluoro-methyl)cyclo-propyl)carbonyl)pipeiridin-4-yl) isoindolin-1-one]"

# Same assay, conditions: 10 μM; wells without enzyme = 100% inhibition; read-out: HDAC6 inhibitory rate (%) (10 μM)
row,Compound,inhibition at 10 µM [%]
1,"COC(=O)N1CC[C@@H](N2Cc3ncc(-c4nnc(C(F)F)o4)cc3C2=O)[C@H](c2ccc(F)c(F)c2)C1 [Example 499, methyl (3R,4R)-4-(3-(5-(difluoro-methyl)-1,3,4-oxadiazol-2-yl)-5-oxo-5,7-dihydro-6H-pyrrolo[3,4-b]pyridin-6-yl)-3-(3,4-difluoro-phenyl) piperidine-1-carboxylate]",99
2,"CC(F)(F)C(=O)N[C@@H]1CCCC(F)(F)[C@H]1N1Cc2ncc(-c3nnc(C(F)F)o3)cc2C1=O [Example 500, N-((1R,2S)-2-(3-(5-(difluoro-methyl)-1,3,4-oxadiazol-2-yl)-5-oxo-5,7-dihydro-6H-pyrrolo[3,4-b]pyridin-6-yl)-3,3-difluoro-cyclohexyl)-2,2-difluoro-propanamide]",99
3,"O=C1c2cc(-c3nnc(C(F)F)o3)ccc2CN1N1CCOCC1c1ccccc1 (stereo not shown) [Example 501, 6-(5-(difluoro-methyl)-1,3,4-oxadiazol-2-yl)-2-(3-phenyl-morpholin-4-yl) isoindolin-1-one]",98
4,"O=C1c2cc(-c3nnc(C(F)F)o3)cnc2CN1[C@@H]1CCCC[C@H]1n1cnc2ccccc21 [Example 502, 6-((1R,2R)-2-(1H-benzimidazol-1-yl)cyclohexyl)-3-(5-(difluoromethyl)-1,3,4-oxadiazol-2-yl)-6,7-dihydro-5H-pyrrolo[3,4-b]pyridin-5-one]",100
5,"Cc1nc2ccccc2n1[C@@H]1CCCC[C@H]1N1Cc2ncc(-c3nnc(C(F)F)o3)cc2C1=O [Example 503, 3-(5-(difluoromethyl)-1,3,4-oxadiazol-2-yl)-6-((1R,2R)-2-(2-methyl-1H-benzimidazol-1-yl)cyclohexyl)-6,7-dihydro-5H-pyrrolo[3,4-b]pyridin-5-one]",99
6,"COC(=O)N1CC[C@@H](N2Cc3ccc(-c4nnc(C(F)F)o4)cc3C2=O)[C@H](c2ccc(F)cc2)C1 [Example 505, methyl (3R,4R)-4-(6-(5-(difluoro-methyl)-1,3,4-oxadiazol-2-yl)-1-oxo-1,3-dihydro-2H-isoindol-2-yl)-3-(4-fluoro-phenyl) piperidine-1-carboxylate]",100
7,"CC(F)(F)C(=O)N1CC[C@@H](N2Cc3ccc(-c4nnc(C(F)F)o4)cc3C2=O)[C@H](c2ccc(F)cc2)C1 [Example 506, 6-(5-(difluoro-methyl)-1,3,4-oxadiazol-2-yl)-2-((3R,4R)-1-(2,2-difluoro-propanoyl)-3-(4-fluorophenyl)piperidin-4-yl) isoindolin-1-one]",99
8,"O=C1c2cc(-c3nnc(C(F)F)o3)ccc2CN1[C@@H]1CCN(C(=O)C2(F)CC2)C[C@H]1c1ccc(F)cc1 [Example 507, 6-(5-(difluoro-methyl)-1,3,4-oxadiazol-2-yl)-2-((3R,4R)-1-((1-fluorocyclo-propyl)carbonyl)-3-(4-fluoro-phenyl)piperidin-4-yl)isoindolin-1-one]",100

# Second part, the molecule after the results:
row,inhibition at 10 µM [%],Compound
1,99,"CC(=O)N1CC[C@@H](N2Cc3ccc(-c4nnc(C(F)F)o4)cc3C2=O)[C@H](c2ccc(F)cc2)C1 [Example 509, 2-((3R,4R)-1-acetyl-3-(4-fluorophenyl)piperidin-4-yl)-6-(5-(difluoro-methyl)-1,3,4-oxadiazol-2-yl) isoindolin-1-one]"
2,100,"O=C(N[C@H]1[C@H](N2Cc3ccc(-c4nnc(C(F)F)o4)cc3C2=O)CCCC1(F)F)OCc1ccccc1 [Example 510, benzyl ((1S,6R)-6-(6-(5-(difluoromethyl)-1,3,4-oxadiazol-2-yl)-1-oxo-1,3-dihydro-2H-isoindol-2-yl)-2,2-difluorocyclohexyl)carbamate]"
3,95,"N[C@H]1[C@H](N2Cc3ccc(-c4nnc(C(F)F)o4)cc3C2=O)CCCC1(F)F [Example 511, 2-((1R,2S)-2-amino-3,3-difluorocyclohexyl)-6-(5-(difluoromethyl)-1,3,4-oxadiazol-2-yl)isoindolin-1-one]"
4,99,"O=C1c2cc(-c3nnc(C(F)F)o3)ccc2CN1[C@@H]1CCCC(F)(F)[C@H]1NC(=O)C(F)(F)C(F)(F)F [Example 513, N-((1S,6R)-6-(6-(5-(difluoromethyl)-1,3,4-oxadiazol-2-yl)-1-oxo-1,3-dihydro-2H-isoindol-2-yl)-2,2-difluorocyclohexyl)-2,2,3,3,3-pentafluoropropanamide]"
5,99,"O=C1c2cc(-c3nnc(C(F)F)o3)ccc2CN1[C@@H]1CCC(F)(F)C[C@@H]1NC(=O)C(F)(F)C(F)(F)F [Example 515, N-((1S,2R)-2-(6-(5-(difluoro-methyl)-1,3,4-oxadiazol-2-yl)-1-oxo-1,3-dihydro-2H-isoindol-2-yl)-5,5-difluoro-cyclohexyl)-2,2,3,3,3-pentafluoro-propanamide]"
6,100,"CC(F)(F)C(=O)N[C@H]1CC(F)(F)CC[C@H]1N1Cc2ccc(-c3nnc(C(F)F)o3)cc2C1=O [Example 516, N-((1S,2R)-2-(6-(5-(difluoromethyl)-1,3,4-oxadiazol-2-yl)-1-oxo-1,3-dihydro-2H-isoindol-2-yl)-5,5-difluorocyclohexyl)-2,2-difluoropropanamide]"
7,99,"Cn1cc(C2=CCN(C(=O)OC(C)(C)C)CC2)c(N2Cc3ccc(-c4nnc(C(F)F)o4)cc3C2=O)n1 [Example 518, tert-butyl 4-(3-(6-(5-(difluoro-methyl)-1,3,4-oxadiazol-2-yl)-1-oxo-1,3-dihydro-2H-isoindol-2-yl)-1-methyl-1H-pyrazol-4-yl)-3,6-dihydro-pyridine-1(2H)-carboxylate]"
8,99,"Cn1cc(C2=CCC(NC(=O)OC(C)(C)C)CC2)c(N2Cc3ccc(-c4nnc(C(F)F)o4)cc3C2=O)n1 (stereo not shown) [Example 519, tert-butyl (4-(3-(6-(5-(difluoromethyl)-1,3,4-oxadiazol-2-yl)-1-oxo-1,3-dihydro-2H-isoindol-2-yl)-1-methyl-1H-pyrazol-4-yl)cyclohex-3-en-1-yl)carbamate]"
9,99,"CC(C)(C)OC(=O)NC1CC=C(c2cc(F)ccc2N2Cc3ccc(-c4nnc(C(F)F)o4)cc3C2=O)CC1 (stereo not shown) [Example 520, tert-butyl (4-(2-(6-(5-(difluoromethyl)-1,3,4-oxadiazol-2-yl)-1-oxo-1,3-dihydro-2H-isoindol-2-yl)-5-fluorophenyl)cyclohex-3-en-1-yl)carbamate]"
10,99,"O=C1c2cc(-c3nnc(C(F)F)o3)ccc2CN1[C@@H]1CCCC[C@H]1Nc1ccccn1 [Example 521, 6-(5-(difluoromethyl)-1,3,4-oxadiazol-2-yl)-2-((1R,2R)-2-(pyridin-2-ylamino)cyclohexyl)isoindolin-1-one]"
11,99,"Cn1cc(C2CCN(C(=O)OC(C)(C)C)CC2)c(N2Cc3ccc(-c4nnc(C(F)F)o4)cc3C2=O)n1 [Example 522, tert-butyl 4-(3-(6-(5-(difluoromethyl)-1,3,4-oxadiazol-2-yl)-1-oxo-1,3-dihydro-2H-isoindol-2-yl)-1-methyl-1H-pyrazol-4-yl)piperidine-1-carboxylate]"
12,99,"Cn1cc(C2CCC(NC(=O)OC(C)(C)C)CC2)c(N2Cc3ccc(-c4nnc(C(F)F)o4)cc3C2=O)n1 (stereo not shown) [Example 523, tert-butyl (4-(3-(6-(5-(difluoromethyl)-1,3,4-oxadiazol-2-yl)-1-oxo-1,3-dihydro-2H-isoindol-2-yl)-1-methyl-1H-pyrazol-4-yl)cyclohexyl)carbamate]"
13,99,"CC(C)(C)OC(=O)N1CCC(c2cc(F)ccc2N2Cc3ccc(-c4nnc(C(F)F)o4)cc3C2=O)CC1 [Example 524, tert-butyl 4-(2-(6-(5-(difluoromethyl)-1,3,4-oxadiazol-2-yl)-1-oxo-1,3-dihydro-2H-isoindol-2-yl)-5-flluorophenyl)piperidine-1-carboxylate]"
